Here are results for 13 compounds from PMC10880909, “Correction: A high-throughput effector screen identifies a novel small molecule scaffold for inhibition of ten-eleven translocation dioxygenase 2” (RSC Medicinal Chemistry, 2024).

The first test concerns the target hTET2 (Homo sapiens, UniProt Q6N021). In words: MALDI-based inhibition assay of hTET2.
Conditions: not given
The term IC50 denotes the midpoint of a concentration-inhibition curve. Low readings indicate greater potency, high ones weaker potency. Turning to `O=S(=O)(NCCc1ccccc1)c1ccc(F)c2ncc(I)cc12` [Compound 14], the IC50 is greater than 200 µM. On to `O=S(=O)(Nc1ccccc1)c1ccc(F)c2ncc(I)cc12` [Compound 11], for which the IC50 is greater than 200 µM. On the same count and under the same terms, then `CNS(=O)(=O)c1ccc(F)c2ncc(I)cc12` [Compound 9], with greater than 200 µM; and `O=S(=O)(NCc1ccccc1)c1ccc(F)c2ncc(I)cc12` [Compound 13], with greater than 200 µM. With `CCCCCOS(=O)(=O)c1ccc(F)c2ncc(I)cc12` [Compound 6], the IC50 was greater than 200 µM. Compound `NS(=O)(=O)c1ccc(F)c2ncc(I)cc12` [Compound 8] gave an IC50 greater than 200 µM. Turning to `O=S(=O)(O)c1ccc(O)c2ncccc12` [Compound 18], the 50% inhibitory concentration (IC50) is 12.1 ± 4.2 µM. In turn, `Oc1cc2c(cc1O)CNCC2` [Compound 21, tetrahydroisoquinoline-6,7-diol] gave an IC50 of 8.6 µM. Same read-out and setting: then `O=C(O)c1ccc(F)c2ncccc12` [Compound 19], with greater than 200 µM. Still for that read-out and setting: the figure for `O=C(O)c1ncccc1O` [Compound 22, 3-hydroxypicolinic acid] is 48.6 µM; for `O=S(=O)(c1ccc(F)c2ncc(I)cc12)N1CCCC1` [Compound 10] it is greater than 200 µM; for `CC(C)OS(=O)(=O)c1ccc(F)c2ncc(I)cc12` [Compound 5] it is greater than 200 µM. On the same count and under the same terms, then `O=S(=O)(Nc1cccc(O)c1)c1ccc(F)c2ncc(I)cc12` [Compound 16], with greater than 200 µM.

Staying with this test, now noted: additional SAR / re-synthesis.
As for `Oc1cc2c(cc1O)CNCC2` [Compound 21, tetrahydroisoquinoline-6,7-diol], the “hTET2 inhibition, result in words” value was “micromolar IC50 values”. Still for that read-out and setting: the entry for `O=C(O)c1ccc(F)c2ncccc12` [Compound 19] is “inactivity”. On the same count and under the same terms, the entry for `O=C(O)c1ncccc1O` [Compound 22, 3-hydroxypicolinic acid] is “micromolar IC50 values”.
